Measurements reported in publication PMC11784013, “Potassium molybdate blocks APN-dependent coronavirus entry by degrading receptor via PIK3C3-mediated autophagy” (Journal of Virology, 2024).

What was measured:
intestinal organoids = assay: Cell Counting Kit 8 cytotoxicity assay in intestinal organoids; type: cell-based, porcine; conditions: PM at concentrations less than 30 mM, 24 h
Experimental: Fig 2 PM restricts TGEV and PRCV infection in porcine intestinal organoids. (A) Intestinal organoids cultured in 96-well plate were incubated with different concentrations of PM for 24 h, which was tested by Cell Counting Kit 8. (B and C) The intestinal organoids monolayer was treated with indicated PM and infected with TGEV Miller (0.1 MOI) for 24 h, which was measured by IFA (B), scale bar: 50 µm, RT-qPCR, TCID50, and western blot (C). (D) Apical-out intestinal organoids were treated with indicated PM and infected TGEV Miller (1 MOI) for 48 h, which was determined by RT-qPCR, TCID50, and western blot. (E and F) The intestinal organoids monolayer was treated with different concentrations of PM and infected with PRCV for 24 h, which was determined by IFA (E), scale bar: 50 µm, RT-qPCR, TCID50, and western blot (F). (G) Apical-out intestinal organoids were treated with indicated PM and infected PRCV (1 MOI) for 48 h, which was detected by RT-qPCR, TCID50, and western blot. Results are presented as mean ± SD of data from three independent experiments. **, P ≤ 0.01; ***, P ≤ 0.001.
ST cells or intestinal organoids cultured in a 96-well plate were incubated with different concentrations of PM (0, 0.1, 0.25, 0.5, 1, 2.5, 5, 10, 20, and 30 mM) for 24 h. […] The absorbance of each well was then measured at 450 nm using a microplate reader to determine cell viability.

APN = APN expression in ST cells and porcine intestinal organoids (western blot, IFA); type: cell-based; conditions: PM 10 mM; for APN level, western blot, relative to WT without PM (=1) / APN level, western blot quantified by Image J, relative to no PM (=1): PRCV 0.1 MOI; for APN level, western blot quantified by Image J, relative to no PM (=1): ST cells
Experimental: Fig 5 PM blocks TGEV infection by degrading APN expression. (A, D, and G) ST cells (A) or intestinal organoids monolayer (D) or apical-out intestinal organoids (G) were treated with PM (10 mM) at 2, 4, 8, and 16 h, which was collected and determined by western blot. (B, E, and H) ST cells (B) or intestinal organoids monolayer (E) or apical-out intestinal organoids (H) were treated with PM (10 mM) at 16 h, which was measured by IFA, scale bar: 20 µm. (C, F, and I) ST cells (C) or intestinal organoids monolayer (F) or apical-out intestinal organoids (I) were treated with PM (10 mM) and infected with 0.1 MOI TGEV at 2, 4, 8, and 16 h. The cell samples were harvested and detected by western blot. (J) ST cells were transfected with empty vector or pCMV-HA-APN (pig) plasmids for 24 h, which was treated with H2O or PM and then infected with 0.1 MOI TGEV for 16 h. The cell samples were detected by western blot. All western blot results were calculated by Image J. All experiments were performed in triplicate.
Cotransfected cells were washed with cold PBS twice and lysed with NP40 lysis buffer (Beyotime, China, P0013F) supplemented with 1 mM PMSF (Beyotime, China, ST506) and phosphatase inhibitors (Beyotime, China, P1096). Lysis buffer containing cells was added to 20 µL of protein A+G agarose beads (Beyotime, China, P2055) and IgG (Santa Cruz, USA, 2025) on a rotating device for 4 h at 4°C to remove nonspecific proteins, after which the mixture was centrifuged at 2,500 rpm for 5 min. The supernatant was harvested, and anti-Flag/Myc/His/IgG antibodies were added to the samples on a rocking platform overnight at 4°C. Subsequently, 40 µL of protein A+G agarose beads were added to the supernatant containing the antibody, which was incubated for 4 h at 4°C on a rotating device. After washing with lysis buffer three times, the immunoprecipitates were collected by centrifugation, and the supernatant was discarded. Immunoprecipitated proteins were detected by western blotting. For the western blot, the proteins were separated by SDS‒PAGE and transferred onto a PVDF membrane (GE, USA, 10600023). The membranes were blocked in 5% nonfat milk at room temperature for 2 h and then incubated with specific primary antibodies overnight. Subsequently, the membrane was incubated with the secondary antibody for 1 h at room temperature. Finally, the proteins on the membranes were visualized with WesternBright ECL (Advansta, USA, K-12045-D50).
Fig. S5. PM blocks PRCV infection by degrading APN expression. (A) ST cells were treated with PM (10 mM) and infected with 0.1 MOI PRCV at 2 h, 4 h, 8 h and 16 h. The cell samples were harvested and determined by western blot. All western blot results were calculated by Image J. All experiments were performed in triplicate.
Fig. S8. PM inhibits PRCV infection by degrading APN via PIK3C3-mediated autophagy. (A-C) WT ST cells and PIK3C3 KO ST cells were treated with PM (10 mM) and infected with PRCV (0.1 MOI) for 16 h. Then the APN, PIK3C3, ATG14, BECN1, P62, PRCV N and LC3 were detected by western blot (A), and viral titers and PRCV N mRNA level were determined by TCID50 (B) and RT-qPCR (C) . (D-F) WT ST cells and PIK3C3 KO ST cells transfected with pCMV-Myc and pCMV-Myc-PIK3C3 respectively for 24 h were treated with PM (10 mM) and infected with PRCV (0.1 MOI) for 16 h. The APN, PIK3C3, P62, PRCV N and LC3 were determined by western blot (D). TCID50 (E) and RT-qPCR (F) were performed to detect viral titers and PRCV N m RNA level. All western blot results were calculated by Image J. Results are presented as mean ± SD of data from three independent experiments […]

Which “cytotoxicity (Cell Counting Kit 8)” value (intestinal organoids) does the source give for `[K+].[K+].[O]=[Mo](=[O])([O-])[O-]` [PM, potassium molybdate] here?
The value was “did not cause significant cytotoxicity”.

And the “APN level, western blot, relative to WT without PM (=1)” value (APN; Fig. S8A, PIK3C3 KO ST cells, 16 h)?
The value was 0.88.

What about the “APN level, western blot, relative to WT without PM (=1)” value (APN; Fig. S8A, WT ST cells, 16 h) of the same compound?
The value was 0.15.

And the “APN level, western blot, relative to WT without PM (=1)” value (APN; Fig. S8D, PIK3C3 KO ST cells with PIK3C3-Myc, 16 h)?
The value was 0.14.

And the “APN level, western blot, relative to WT without PM (=1)” value (APN; Fig. S8D, PIK3C3 KO ST cells without PIK3C3-Myc, 16 h)?
Its value is 0.87.

And the “APN level, western blot, relative to WT without PM (=1)” value (APN; Fig. S8D, WT ST cells with pCMV-Myc, 16 h)?
The value was 0.1.

What about the “APN expression in ST cells” value (APN; 2-16 h, western blot and IFA) of the same compound?
Its value is “decreased APN expression in ST cells”.

And the “APN expression in intestinal organoid monolayers and apical-out organoids” value (APN; absence or presence of TGEV, different time points, western blot and IFA)?
Its value is “decreased ex vivo APN expression”.

What about the “APN level, western blot quantified by Image J, relative to no PM (=1)” value (from here on “APN level … relative to no PM (=1)”) (APN; 2 h) of the same compound?
The value was 0.53.

What about the “APN level … relative to no PM (=1)” value (APN; 4 h) of the same compound?
The value was 0.31.

And the “APN level … relative to no PM (=1)” value (APN; 8 h)?
Its value is 0.19.

What about the “APN level … relative to no PM (=1)” value (APN; 16 h) of the same compound?
The value was 0.01.
